The text below walks through data of patent US6369030B1, “Inhibitors of histone acetyltransferases (HATs) and uses thereof” (The Rockfeller University, priority 1999, dated 2002).

The structures appear in SMILES notation. “And” between values parts separate entries of the source, which are not always exact repeats. Equal values may be shown once. Read-outs that look alike come from different tables or passages of the source. Residues, ends and D or L forms follow the SMILES beside them. *: point of attachment. CoASCH2CO = CC(C)(COP(=O)(O)OP(=O)(O)OC[C@H]1O[C@@H](n2cnc3c(N)ncnc32)[C@H](O)[C@@H]1OP(=O)(O)O)[C@@H](O)C(=O)NCCC(=O)NCCSCC(=O)* Bounds are passed on as bounds.

Experiment [1] concerns the target T1, PCAF (Homo sapiens, UniProt Q92831).
T1 construct: Full length PCAF and p300 proteins were prepared and purified according to previously described methods; made in house
In words: HAT activity inhibition assay, PCAF, mixed histones as substrate. Type of experiment: biochemical. The following applies: for IC50: [acetyl-CoA]=10 M, [mixed histones]=33 μg/mL, standard errors estimated ±20%. The method, then: (§1) Screening of the peptide CoA conjugate for inhibition of HAT activity of PCAF and p300 was carried out according to standard HAT assay procedures (Ogryzko et al., 1996; Yang et al., 1996; Schiltz et al., 1999) using commercially available mixed calf histone substrates. […] Full length PCAF and p300 proteins were prepared and purified according to previously described methods (Schiltz et al., 1999). HAT inhibition assay procedures were adapted from previously described methods (gryzko et al., 1996; Yang et al., 1996; Schiltz et al., 1999). Briefly, substrate concentrations were 10 μM acetyl-CoA (NEN, ^14C, 0.02 μCi/μL), 33 μg/mL mixed histones (Boehringer); buffer conditions-50 mM Tris-HCl (pH 8), 10 mM sodium butyrate 1 mM phenylmethyl sulfonyl fluoride, 1 mM dithiothreitol, 0.1 mM N,N,N′,N′-ethylenediamine tetraacetic acid and 10% v/v glycerol. Reactions employed purified recombinant p300 and PCAF (Schiltz et al., 1999) at concentrations of 6 nM and 27 nM, respectively. A range of at least 5 inhibitor concentrations were used. Assays were carried out in 0.5 mL plastic tubes at 30° C. and the reaction volumes were 30 μL. Reactions were initiated with the radioactive acetyl-CoA (4 μL) after allowing the enzyme/buffer/histone/inhibitor mixture to equilibrate at 30° C. for 10 min, and reactions quenched after 1 min with 7.5 μL 5×SDS gel load. Mixtures were run out on 15% SDSPAGE visualized with Coomassie blue, dried, and radioactivity quantified by phosphorimage analysis (Molecular Dynamics). In all cases, background acetylation (in the absence of enzyme) was subtracted from the total signal.

The target in experiment [2] is T2, p300 (Homo sapiens, UniProt Q09472).
T2 construct: Full length PCAF and p300 proteins were prepared and purified according to previously described methods; made in house
In words: HAT activity inhibition assay, p300, mixed histones as substrate. Type of experiment: biochemical. The method, then:
as §1

The test system of the next experiment is naked DNA transcription. Nature of the experiment: In vitro transcription from naked DNA template. The following applies: 10 μM inhibitor; average of 4 independent experiments. In kind it is biochemical.
In experiment [3] the target is T1, PCAF. In kind it is biochemical. The following applies: nucleosomes as substrate, inhibitor 20 μM. The method, then:
(§2) Full length PCAF and p300 proteins were prepared and purified according to previously described methods (Schiltz et al., 1999). HAT inhibition assay procedures were adapted from previously described methods (gryzko et al., 1996; Yang et al., 1996; Schiltz et al., 1999). […] Reactions employed purified recombinant p300 and PCAF (Schiltz et al., 1999) at concentrations of 6 nM and 27 nM, respectively. A range of at least 5 inhibitor concentrations were used. Assays were carried out in 0.5 mL plastic tubes at 30° C. and the reaction volumes were 30 μL. Reactions were initiated with the radioactive acetyl-CoA (4 μL) after allowing the enzyme/buffer/histone/inhibitor mixture to equilibrate at 30° C. for 10 min, and reactions quenched after 1 min with 7.5 μL 5×SDS gel load. Mixtures were run out on 15% SDSPAGE visualized with Coomassie blue, dried, and radioactivity quantified by phosphorimage analysis (Molecular Dynamics). In all cases, background acetylation (in the absence of enzyme) was subtracted from the total signal.
(§3) 3) FIG. 3. Assessment of p300 and PCAF HAT Activities in p300/PCAF Mixtures. (A) p300 and PCAF HAT activities with mixed histones as substrates.

Experiment [4] deals with T2, p300. Nature of the experiment: HAT inhibition assay, p300, nucleosomes as substrate. Type of experiment: biochemical. The following applies: inhibitor 20 μM. The method, then: as §2, §3
Experiment [5] relates to p300 and acetyl-CoA dependent transcription from chromatin template. Nature of the experiment: In vitro chromatin-template transcription dependent on p300 HAT activity. Type of experiment: biochemical, human.
Protocol: (§4) FIG. 4B and C: Transcription from naked DNA and chromatin templates. DNA (28 ng) and freshly assembled chromatin templates (with an equivalent amount of DNA) were incubated with or without activator, Gal4-VP16 (30 ng) for 20 min at 30° C.; 25 ng of baculovirus expressed, highly purified p300 (full length) and 1.5 μM of acetyl-CoA were added as indicated. Following the addition of nuclear extract (source of general transcription factors) and NTPs, transcription reactions were incubated and processed as described.
The chromatin template was reconstituted by incubation of purified proteins (HeLa core histones, NAP1 and rh TopoI) with a 5.4 kb plasmid (p20855G5MLC2AT) that contains a 690 bp promoter region (5 Gal4 binding sites and the adenovirus major late promoter with a G-less cassette) flanked on both sides by the 5 nucleosome positioning sequence from the sea urchin 55 rRNA gene (Cote et al., 1995). Assembled chromatin was structurally characterized by supercoiling and micrococcal nuclease (MNase) assay (data not shown).
Chromatin template for transcription studies were assembled on a ˜5.4 kb plasmid (p2085S G5MLC2AT) with purified human core histones, rh TpopI, and NAP1 as described (T. K. K. et al., manuscript in preparation). Prior to use in the transcription experiment, assembled, chromatin was subjected to supercoiling and Mnase assay. […]
Setting [6] is: [acetyl-CoA]=10 M, [mixed histones]=33 μg/mL, standard errors estimated ±20%, read-out: IC50 with p300.
Where [7] appears, read: mixed histones, individual enzyme, inhibitor 20 μM.

The IC50 is the concentration needed to halve the response being measured.

T2 sequence (Q09472 whole entry): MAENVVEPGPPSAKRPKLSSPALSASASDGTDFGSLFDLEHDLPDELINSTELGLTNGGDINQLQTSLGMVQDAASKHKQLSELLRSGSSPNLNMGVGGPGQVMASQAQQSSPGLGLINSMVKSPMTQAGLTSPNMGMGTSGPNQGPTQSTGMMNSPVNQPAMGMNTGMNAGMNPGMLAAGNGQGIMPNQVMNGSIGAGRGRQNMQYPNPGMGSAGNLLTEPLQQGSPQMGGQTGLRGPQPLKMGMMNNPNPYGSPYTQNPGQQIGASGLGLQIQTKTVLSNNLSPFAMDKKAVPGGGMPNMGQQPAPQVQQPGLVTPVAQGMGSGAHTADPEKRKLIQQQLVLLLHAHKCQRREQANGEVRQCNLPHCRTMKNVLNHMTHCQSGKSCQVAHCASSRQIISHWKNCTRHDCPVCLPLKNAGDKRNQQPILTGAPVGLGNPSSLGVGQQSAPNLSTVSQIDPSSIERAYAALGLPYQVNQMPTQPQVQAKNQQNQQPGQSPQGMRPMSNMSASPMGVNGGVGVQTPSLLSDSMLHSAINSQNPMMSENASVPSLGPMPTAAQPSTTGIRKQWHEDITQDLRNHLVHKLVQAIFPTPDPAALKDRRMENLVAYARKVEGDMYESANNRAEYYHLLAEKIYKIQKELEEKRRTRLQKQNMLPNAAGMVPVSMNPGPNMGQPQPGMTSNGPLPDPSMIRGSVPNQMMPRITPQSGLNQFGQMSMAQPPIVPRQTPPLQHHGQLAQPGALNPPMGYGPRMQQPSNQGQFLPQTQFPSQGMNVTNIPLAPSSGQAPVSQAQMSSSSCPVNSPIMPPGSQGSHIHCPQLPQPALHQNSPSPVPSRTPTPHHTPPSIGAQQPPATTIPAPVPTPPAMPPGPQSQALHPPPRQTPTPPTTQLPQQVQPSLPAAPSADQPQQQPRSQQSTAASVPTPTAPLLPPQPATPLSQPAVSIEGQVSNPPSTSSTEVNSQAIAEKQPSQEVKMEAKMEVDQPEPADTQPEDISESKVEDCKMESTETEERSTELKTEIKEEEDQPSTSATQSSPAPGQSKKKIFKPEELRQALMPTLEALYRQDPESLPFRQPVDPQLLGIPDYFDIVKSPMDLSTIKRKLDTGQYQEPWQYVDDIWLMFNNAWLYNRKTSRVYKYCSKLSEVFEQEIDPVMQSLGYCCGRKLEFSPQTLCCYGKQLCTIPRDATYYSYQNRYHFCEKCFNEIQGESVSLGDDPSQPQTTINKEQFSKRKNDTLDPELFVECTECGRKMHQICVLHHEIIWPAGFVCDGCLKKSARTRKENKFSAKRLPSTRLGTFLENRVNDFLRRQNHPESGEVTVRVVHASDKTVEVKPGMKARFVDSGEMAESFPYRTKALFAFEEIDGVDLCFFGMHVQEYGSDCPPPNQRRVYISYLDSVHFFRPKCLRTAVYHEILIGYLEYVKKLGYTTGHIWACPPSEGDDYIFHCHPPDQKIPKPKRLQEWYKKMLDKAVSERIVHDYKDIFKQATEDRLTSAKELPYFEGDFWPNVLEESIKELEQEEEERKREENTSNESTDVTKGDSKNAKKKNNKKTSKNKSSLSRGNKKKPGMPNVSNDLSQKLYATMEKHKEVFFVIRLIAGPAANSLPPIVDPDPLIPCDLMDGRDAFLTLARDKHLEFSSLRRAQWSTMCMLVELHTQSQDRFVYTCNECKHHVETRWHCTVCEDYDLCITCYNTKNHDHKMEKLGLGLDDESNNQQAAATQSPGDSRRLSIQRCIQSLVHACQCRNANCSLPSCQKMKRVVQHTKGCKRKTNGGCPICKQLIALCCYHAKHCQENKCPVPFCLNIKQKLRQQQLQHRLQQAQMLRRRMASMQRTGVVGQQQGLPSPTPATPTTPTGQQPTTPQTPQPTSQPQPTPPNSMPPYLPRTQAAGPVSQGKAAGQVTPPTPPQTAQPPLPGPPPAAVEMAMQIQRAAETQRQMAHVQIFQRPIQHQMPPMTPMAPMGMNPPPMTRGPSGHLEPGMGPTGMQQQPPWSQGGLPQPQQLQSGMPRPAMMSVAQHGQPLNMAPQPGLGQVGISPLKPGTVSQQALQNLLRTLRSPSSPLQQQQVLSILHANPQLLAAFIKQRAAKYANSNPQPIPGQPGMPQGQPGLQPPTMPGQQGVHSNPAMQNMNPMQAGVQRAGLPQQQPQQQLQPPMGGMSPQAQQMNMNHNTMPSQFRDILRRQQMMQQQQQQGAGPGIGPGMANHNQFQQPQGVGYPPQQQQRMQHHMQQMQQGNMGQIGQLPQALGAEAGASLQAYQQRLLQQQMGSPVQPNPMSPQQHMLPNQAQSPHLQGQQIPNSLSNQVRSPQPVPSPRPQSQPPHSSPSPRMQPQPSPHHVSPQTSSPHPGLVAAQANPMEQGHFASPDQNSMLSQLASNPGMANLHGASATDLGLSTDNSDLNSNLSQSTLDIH
T1 sequence (Q92831 whole entry): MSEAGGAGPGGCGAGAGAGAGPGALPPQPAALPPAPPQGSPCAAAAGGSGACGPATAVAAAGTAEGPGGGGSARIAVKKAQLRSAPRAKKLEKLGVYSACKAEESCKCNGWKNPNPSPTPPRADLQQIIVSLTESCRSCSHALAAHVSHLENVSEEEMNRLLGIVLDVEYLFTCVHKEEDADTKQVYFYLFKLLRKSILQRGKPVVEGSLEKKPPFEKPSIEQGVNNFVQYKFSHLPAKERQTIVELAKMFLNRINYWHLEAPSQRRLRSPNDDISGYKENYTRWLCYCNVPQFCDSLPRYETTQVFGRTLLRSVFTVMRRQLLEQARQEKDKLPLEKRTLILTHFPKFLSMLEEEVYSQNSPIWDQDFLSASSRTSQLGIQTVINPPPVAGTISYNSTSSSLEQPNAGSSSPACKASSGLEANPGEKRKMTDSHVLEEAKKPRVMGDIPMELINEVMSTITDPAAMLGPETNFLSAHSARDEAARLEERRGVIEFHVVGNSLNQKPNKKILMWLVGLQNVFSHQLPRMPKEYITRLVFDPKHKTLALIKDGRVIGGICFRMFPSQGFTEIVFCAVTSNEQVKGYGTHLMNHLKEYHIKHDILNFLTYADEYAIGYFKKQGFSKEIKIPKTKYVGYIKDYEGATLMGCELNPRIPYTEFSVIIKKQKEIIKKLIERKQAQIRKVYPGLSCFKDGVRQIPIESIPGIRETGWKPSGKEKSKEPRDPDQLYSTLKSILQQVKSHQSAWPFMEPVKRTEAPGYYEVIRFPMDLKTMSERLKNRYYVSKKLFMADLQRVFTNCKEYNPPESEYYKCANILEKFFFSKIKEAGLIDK
Protocol for naked DNA transcription: as §4
Recombinant His6-tagged nucleosome assembly protein 1 (NAP1) and transcription activator Gal4-VP16 were expressed in E. coli and purified with nitrilloacetic acid-agarose (Qiagen) as specified by the manufacturer. […] In vitro transcription assays were carried out in 50 μL reaction mixtures containing either 28 ng of DNA or an equivalent amount of chromatin.
(A) Outline of the in vitro transcription protocol. (B) and (C) Transcription form naked DNA and chromatin templates. DNA (28 ng) and freshly assembled chromatin templates (with an equivalent amount of DNA) were incubated with or without activator, Gal4-VP16 (30 ng) for 20 min at 30°, 25 ng of baculovirus expressed, highly purified p300 (full length) and 1.5 μM of acetyl-CoA were added as indicated. […]

Turning to `CC(C)(COP(=O)(O)OP(=O)(O)OC[C@H]1O[C@@H](n2cnc3c(N)ncnc32)[C@H](O)[C@@H]1OP(=O)(O)O)[C@@H](O)C(=O)NCCC(=O)NCCS` [CoASH, reference compound], the IC50 on PCAF [1] was > 20000 nM. Further, at PCAF [1] (mixed histones), the “inhibition of PCAF HAT activity, in words” value is “Neither the H3-20 peptide (which lacked CoA attachment) nor CoASH itself were potent HAT inhibitors”. Besides, on p300 [2] (mixed histones), the “inhibition of p300 HAT activity, in words” value is reported as “Neither the H3-20 peptide (which lacked CoA attachment) nor CoASH itself were potent HAT inhibitors”.
Turning to `CC(=O)NCC(=O)NCC(=O)N[C@@H](CCCCNC(=O)CSCCNC(=O)CCNC(=O)[C@H](O)C(C)(C)COP(=O)(O)OP(=O)(O)OC[C@H]1O[C@@H](n2cnc3c(N)ncnc32)[C@H](O)[C@@H]1OP(=O)(O)O)C(=O)N[C@@H](C)C(=O)N1CCC[C@H]1C(=O)N[C@@H](CCCNC(=N)N)C(=O)N[C@@H](CCCCN)C(N)=O` [Compound H3-CoA-7] (Ac-GGK(CoASCH2CO)APRK-NH2), the results for the 50% inhibitory concentration (IC50) at PCAF [1] and at p300 [2] (setting [6]) were > 20000 nM and > 30000 nM, respectively. Moreover, the “inhibition of PCAF HAT activity, in words” value at PCAF [1] (mixed histones) is given as “not achieved”.
Regarding `CC(=O)N[C@@H](CCCCNC(=O)CSCCNC(=O)CCNC(=O)[C@H](O)C(C)(C)COP(=O)(O)OP(=O)(O)OC[C@H]1O[C@@H](n2cnc3c(N)ncnc32)[C@H](O)[C@@H]1OP(=O)(O)O)C(N)=O` [Lys-CoA], the “inhibition of naked DNA transcription” value with naked DNA transcription is 15-20%. The “PCAF inhibition (nucleosome acetylation)” value on PCAF [3] is “less than 10%”. Also, the IC50 on PCAF [1] was ~200000 nM; at p300 [2] (setting [6]), ~500 nM and 500 nM; on p300 [2] (mixed calf histone substrates, read-out: IC50 of p300 acetyltransferase activity), ~500 nM. In addition, the “inhibition with PCAF” value at PCAF [1] (setting [7]) was “less than 10%”. In addition, the “p300 inhibition (nucleosome acetylation)” value on p300 [4] is recorded as “greater than 90%”. The “transcriptional activation from chromatin template in the presence of p300-PCAF mixtures” value in experiment [5] (p300-PCAF mixtures, data not shown) is on record as “abolished transcriptional activation”. Moreover, in experiment [5] (p300 preincubated with 10 μM inhibitor), the “inhibition of p300 and acetyl-CoA dependent transcription activation from the chromatin template” value is “completely abolished”. Besides, the “selectivity in blocking p300 HAT activity (versus PCAF)” value on p300 [2] was ~200 fold. Besides, the “p300 HAT activity blocked” value on p300 [2] (setting [7]) is reported as “greater than 90%”.
